This passage reports Ki results from patent US8927559B2, “Quinazolinone-type compounds as CRTH2 antagonists” (Merck Sharp & Dohme Corp., priority 2010, dated 2015).

For one assay, the target named is T1, CRTH2 receptor (hCRTH2) (Homo sapiens, UniProt Q9Y5Y4).
T1 construct: expressed in transfected cells; host or cells: HEK cells (HEK-hCRTH2 cell line), membranes
T1 sequence (Q9Y5Y4 1-395): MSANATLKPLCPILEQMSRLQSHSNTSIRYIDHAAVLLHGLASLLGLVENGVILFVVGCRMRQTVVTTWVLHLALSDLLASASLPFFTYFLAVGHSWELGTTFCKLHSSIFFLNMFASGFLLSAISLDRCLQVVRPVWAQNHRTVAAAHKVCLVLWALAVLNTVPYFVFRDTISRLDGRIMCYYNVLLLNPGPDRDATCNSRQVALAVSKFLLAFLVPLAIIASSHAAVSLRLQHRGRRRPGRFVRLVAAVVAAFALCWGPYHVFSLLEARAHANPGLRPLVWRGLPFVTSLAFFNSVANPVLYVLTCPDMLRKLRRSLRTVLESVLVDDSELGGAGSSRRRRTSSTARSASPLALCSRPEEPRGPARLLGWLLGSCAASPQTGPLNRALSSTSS
Nature of the assay: Radioligand binding assay ([3H]PGD2 competition, membranes of HEK-hCRTH2 cell line). Particulars: 3.0 nM [3H]PGD2, HEK-hCRTH2 membranes, 60 min, room temperature; read-out: Ki. Here is the method:
Competing ligands were diluted in dimethylsulfoxide (Me2SO) that was kept constant at 1% (v/v) of the final incubation volume. The reaction was initiated by the addition of 8-20 μg of membrane protein prepared from a HEK-hCRTH2 cell line. Total and non-specific binding were determined in the absence and the presence of […] PGD2, respectively. […] The reaction was routinely conducted for 60 min at room temperature and terminated by rapid filtration through prewetted (0.3% polyethyleneimine) 96-well printed filtermate (Wallac) using a Tomtec harvester. After washing with cold buffer, the filter was dried for 2 minutes in microwave, and Meltilex Scintillator sheet (Wallac) was melted on for 2 min.
Usually Ki stands for a dissociation constant, usually derived from enzyme kinetics or from competition with a known ligand. As to `O=C(O)CCCCc1nc2cc(C3=NOC(c4nc5ccccc5o4)C3)ccc2c(=O)n1-c1ccc(F)cc1` (single isomer, unassigned) [Example 28D, 5-(7-(5-(benzo[d]oxazol-2-yl)-4,5-dihydroisoxazol-3-yl)-3-(4-fluorophenyl)-4-oxo-3,4-dihydroquinazolin-2-yl)pentanoic acid], the Ki lay in the range of 10 to 50 nM.
`O=C(O)CCCCc1nc2cc(C3=NOC(c4nc5ccccc5o4)C3)ccc2c(=O)n1-c1ccc(F)cc1` (single isomer, unassigned) [Example 28E, 5-(7-(5-(benzo[d]oxazol-2-yl)-4,5-dihydroisoxazol-3-yl)-3-(4-fluorophenyl)-4-oxo-3,4-dihydroquinazolin-2-yl)pentanoic acid]: the Ki is not above 10 nM.
With `CC(c1ccccc1)C1(C)CC(c2ccc3c(=O)n(-c4ccc(F)cc4)c(CCCCC(=O)O)nc3c2)=NO1` (single isomer, unassigned) [Example 42, 5-(3-(4-fluorophenyl)-7-(5-methyl-5-(1-phenylethyl)-4,5-dihydroisoxazol-3-yl)-4-oxo-3,4-dihydroquinazolin-2-yl)pentanoic acid], the Ki is not above 10 nM.
Still for that read-out and setting: as for `CC(c1ccccc1)C1(C)CC(c2ccc3c(=O)n(-c4ccc(F)cc4)c(CCCCC(=O)O)nc3c2)=NO1` (single isomer, unassigned) [Example 42E, 5-(3-(4-fluorophenyl)-7-(5-methyl-5-(1-phenylethyl)-4,5-dihydroisoxazol-3-yl)-4-oxo-3,4-dihydroquinazolin-2-yl)pentanoic acid], the figure is not above 10 nM; as for `CC(c1ccccc1)C1(C)CC(c2ccc3c(=O)n(-c4ccc(F)cc4)c(CCCCC(=O)O)nc3c2)=NO1` (single isomer, unassigned) [Example 42F, 5-(3-(4-fluorophenyl)-7-(5-methyl-5-(1-phenylethyl)-4,5-dihydroisoxazol-3-yl)-4-oxo-3,4-dihydroquinazolin-2-yl)pentanoic acid], not above 10 nM; as for `CC(c1ccccc1)C1(C)CC(c2ccc3c(=O)n(-c4ccc(F)cc4)c(CCCCC(=O)O)nc3c2)=NO1` (single isomer, unassigned) [Example 42G, 5-(3-(4-fluorophenyl)-7-(5-methyl-5-(1-phenylethyl)-4,5-dihydroisoxazol-3-yl)-4-oxo-3,4-dihydroquinazolin-2-yl)pentanoic acid], 10 to 50 nM.
For the compound `O=C(O)CCCCc1nc2cc(C3=NOC4(CC[C@H](c5ccccc5)C4)C3)ccc2c(=O)n1-c1ccc(F)cc1` (single isomer, unassigned) [Example 139], the Ki is not above 10 nM.
Consider `O=C(O)CCCCc1nc2cc(C3=NOC4(CC[C@@H](c5ccccc5)C4)C3)ccc2c(=O)n1-c1ccc(F)cc1` (single isomer, unassigned) [Example 141], for which the Ki is not above 10 nM.
With `O=C(O)CSc1nc2cc(-c3cscn3)ccc2c(=O)n1-c1ccc(F)cc1` [Example 1K], the Ki lay in the range of 10 to 50 nM.
In the case of `O=C(O)CCCCc1nc2cc(-c3cc(C4CC4)on3)ccc2c(=O)n1-c1ccc(F)cc1` [Example 5J], the Ki was 10 to 50 nM.
For `O=C(O)CCCCc1nc2cc(-c3ccon3)ccc2c(=O)n1-c1ccc(F)cc1` [Example 5K], the inhibitory constant (Ki) lay within 10 to 50 nM.
Take `O=C(O)CCCCc1nc2cc(-c3cc(C(F)(F)F)on3)ccc2c(=O)n1-c1ccc(F)cc1` [Example 5M]: the Ki was not above 10 nM.

Staying with this assay, now noted: Ki, 3.0 nM [3H]PGD2, HEK-hCRTH2 membranes, 60 min, room temperature.
The compound `CC1(c2nc3ccccc3o2)CC(c2ccc3c(=O)n(-c4ccc(F)cc4)c(CCCCC(=O)O)nc3c2)=NO1` (single isomer, unassigned) [Example 35, 5-(7-(5-(benzo[d]oxazol-2-yl)-5-methyl-4,5-dihydroisoxazol-3-yl)-3-(4-fluorophenyl)-4-oxo-3,4-dihydroquinazolin-2-yl)pentanoic acid] returned a Ki not above 10 nM.
On the same count and under the same terms, with `CC1(c2nc3ccccc3o2)CC(c2ccc3c(=O)n(-c4ccc(F)cc4)c(CCCCC(=O)O)nc3c2)=NO1` (single isomer, unassigned) [Example 35G, 5-(7-(5-(benzo[d]oxazol-2-yl)-5-methyl-4,5-dihydroisoxazol-3-yl)-3-(4-fluorophenyl)-4-oxo-3,4-dihydroquinazolin-2-yl)pentanoic acid] the figure was 10 to 50 nM.
